Results from patent publication US20230381157A1, “RIFABUTIN FOR THE TREATMENT OF ACINETOBACTER BAUMANNII” (University of Southern California, priority 2018, published 2023).
≈ marks a conversion by molar mass, not a printed value. Where two headings read alike, the source gives them in different places.

How the values were obtained:
[1] = system: A. baumannii AB5075 transposon disruption mutants; experiment: microbe, parasite or virus in culture; format: cell-based, Acinetobacter baumannii; conditions: for MIC: Acinetobacter baumannii
A. baumannii ATCC 17978 = experiment: IC50 dose response, inhibition of bacterial growth (BacTiter-Glo viability); format: cell-based, Acinetobacter baumannii; conditions: Acinetobacter baumannii, 11-point dose response

What does the source list for `CO[C@H]1/C=C/O[C@@]2(C)Oc3c(C)c(O)c4c(c3C2=O)C2=NC3(CCN(CC(C)C)CC3)NC2=C(NC(=O)/C(C)=C\C=C\[C@H](C)[C@H](O)[C@@H](C)[C@@H](O)[C@@H](C)[C@H](OC(C)=O)[C@@H]1C)C4=O` [rifabutin]?
Rifabutin MIC ([1]; AB06089, ABUW_2322 (integrase), RPMI): 0.05 µg/mL; Rifabutin MIC ([1]; AB06091, ABUW_2322, MHII): 6.25 µg/mL; Rifabutin MIC ([1]; AB06091, ABUW_2322, RPMI): 0.05 µg/mL; Rifabutin MIC ([1]; AB06105, disrupted gene aroP, RPMI, listed as RBT): 0.05 µg/mL; Rifabutin MIC ([1]; AB06383, disrupted gene hisJ, RPMI, listed as RBT): 0.05 µg/mL; Rifabutin MIC ([1]; AB06386, disrupted gene hisP, RPMI, listed as RBT): 0.05 µg/mL; Rifabutin MIC ([1]; AB06392, disrupted gene hisP, RPMI, listed as RBT): 0.05 µg/mL; Rifabutin MIC ([1]; AB06694, ABUW_2539 (IS4 family transposase), MHII): 3.13 µg/mL; Rifabutin MIC ([1]; AB06694, ABUW_2539 (IS4 family transposase), RPMI): 0.05 µg/mL; Rifabutin MIC ([1]; AB06695, ABUW_2539, MHII): 3.13 µg/mL; Rifabutin MIC ([1]; AB06695, ABUW_2539, RPMI): 0.05 µg/mL; Rifabutin MIC ([1]; AB06731, ABUW_2557 (hypothetical protein(epoxyqueuosine reductase QueH)), MHII): 3.13 µg/mL; Rifabutin MIC ([1]; AB06731, ABUW_2557 (hypothetical protein(epoxyqueuosine reductase QueH)), RPMI): 0.05 µg/mL; Rifabutin MIC ([1]; AB06732, ABUW_2557, MHII): 6.25 µg/mL; Rifabutin MIC ([1]; AB06732, ABUW_2557, RPMI): 0.05 µg/mL; Rifabutin MIC ([1]; AB06821, ABUW_2586 (allophanate hydrolase), MHII): 3.13 µg/mL; Rifabutin MIC ([1]; AB06821, ABUW_2586 (allophanate hydrolase), RPMI): 0.05 µg/mL; Rifabutin MIC ([1]; AB06822, ABUW_2586, MHII): 3.13 µg/mL; Rifabutin MIC ([1]; AB06822, ABUW_2586, RPMI): 0.05 µg/mL; Rifabutin MIC ([1]; AB07354, disrupted gene aroP, RPMI, listed as RBT): 0.05 µg/mL; Rifabutin MIC ([1]; AB07356, disrupted gene aroP, RPMI, listed as RBT): 0.05 µg/mL; Rifabutin MIC ([1]; AB07566, ABUW_2893 (hypothetical protein), MHII): 0.78 µg/mL; Rifabutin MIC ([1]; AB07566, ABUW_2893 (hypothetical protein), RPMI): 0.05 µg/mL; Rifabutin MIC ([1]; AB07567, ABUW_2893, MHII): 0.78 µg/mL; Rifabutin MIC ([1]; AB07567, ABUW_2893, RPMI): 0.05 µg/mL; Rifabutin MIC ([1]; AB07813, disrupted gene mtr, RPMI, listed as RBT): 0.05 µg/mL; Rifabutin MIC ([1]; AB09112, ABUW_3470 (Zn-dependent hydrolase), MHII): 0.78 µg/mL; Rifabutin MIC ([1]; AB09112, ABUW_3470 (Zn-dependent hydrolase), RPMI): 0.05 µg/mL; Rifabutin MIC ([1]; AB09114, ABUW_3470, MHII): 0.78 µg/mL; Rifabutin MIC ([1]; AB09114, ABUW_3470, RPMI): 0.05 µg/mL; Rifabutin MIC ([1]; AB09979, disrupted gene aroP, RPMI, listed as RBT): 0.05 µg/mL; Rifabutin MIC ([1]; AB09980, disrupted gene tryP, RPMI, listed as RBT): 0.05 µg/mL; Rifabutin MIC ([1]; AB09982, disrupted gene tryP, RPMI, listed as RBT): 0.05 µg/mL; Rifabutin MIC ([1]; AB10057, ABUW_3811 (DID), MHII): 3.13 µg/mL; Rifabutin MIC ([1]; AB10057, ABUW_3811 (DID), RPMI): 0.05 µg/mL; Rifabutin MIC ([1]; AB10058, ABUW_3811, MHII): 3.13 µg/mL; Rifabutin MIC ([1]; AB10058, ABUW_3811, RPMI): 0.05 µg/mL; MIC ([1]; read-out: Rifabutin MIC, AB00188, disrupted gene aroP, MHII): 3.13 µg/mL (≈ 3.7 µM); MIC ([1]; read-out: Rifabutin MIC, AB00188, disrupted gene aroP, RPMI): < 0.05 µg/mL; MIC ([1]; read-out: Rifabutin MIC, AB00190, disrupted gene aroP, MHII): 6.25 µg/mL (≈ 7.38 µM); MIC ([1]; read-out: Rifabutin MIC, AB00190, disrupted gene aroP, RPMI): < 0.05 µg/mL; MIC ([1]; read-out: Rifabutin MIC, AB00215, disrupted gene tryP, MHII): 6.25 µg/mL (≈ 7.38 µM); MIC ([1]; read-out: Rifabutin MIC, AB00215, disrupted gene tryP, RPMI): < 0.05 µg/mL; MIC ([1]; read-out: Rifabutin MIC, AB00216, disrupted gene tryP, MHII): 1.56 µg/mL (≈ 1.84 µM); MIC ([1]; read-out: Rifabutin MIC, AB00216, disrupted gene tryP, RPMI): < 0.05 µg/mL; MIC ([1]; read-out: Rifabutin MIC, AB02204, disrupted gene aroP, MHII): 6.25 µg/mL (≈ 7.38 µM); MIC ([1]; read-out: Rifabutin MIC, AB02204, disrupted gene aroP, RPMI): < 0.05 µg/mL; MIC ([1]; read-out: Rifabutin MIC, AB02205, disrupted gene aroP, MHII): 3.13 µg/mL (≈ 3.7 µM); MIC ([1]; read-out: Rifabutin MIC, AB02205, disrupted gene aroP, RPMI): < 0.05 µg/mL; MIC ([1]; read-out: Rifabutin MIC, AB03015, disrupted gene aroP, MHII): 6.25 µg/mL (≈ 7.38 µM); MIC ([1]; read-out: Rifabutin MIC, AB03015, disrupted gene aroP, RPMI): < 0.05 µg/mL; MIC ([1]; read-out: Rifabutin MIC, AB03608, disrupted gene hisJ, MHII): 3.13 µg/mL (≈ 3.7 µM); MIC ([1]; read-out: Rifabutin MIC, AB03608, disrupted gene hisJ, RPMI): < 0.05 µg/mL; MIC ([1]; read-out: Rifabutin MIC, AB03612, disrupted gene hisM, MHII): 3.13 µg/mL (≈ 3.7 µM); MIC ([1]; read-out: Rifabutin MIC, AB03612, disrupted gene hisM, RPMI): < 0.05 µg/mL; MIC ([1]; read-out: Rifabutin MIC, AB03616, disrupted gene hisM, MHII): 6.25 µg/mL (≈ 7.38 µM); MIC ([1]; read-out: Rifabutin MIC, AB03616, disrupted gene hisM, RPMI): < 0.05 µg/mL; MIC ([1]; read-out: Rifabutin MIC, AB03618, disrupted gene hisM, MHII): 6.25 µg/mL (≈ 7.38 µM); MIC ([1]; read-out: Rifabutin MIC, AB03618, disrupted gene hisM, RPMI): < 0.05 µg/mL; MIC ([1]; read-out: Rifabutin MIC, AB5075-UW (parent strain), MHII): 6.25 µg/mL (≈ 7.38 µM); MIC ([1]; read-out: Rifabutin MIC, AB5075-UW (parent strain), RPMI): < 0.05 µg/mL; MIC ([1]; read-out: Rifabutin MIC, AB06105, disrupted gene aroP, MHII): 3.13 µg/mL (≈ 3.7 µM); MIC ([1]; read-out: Rifabutin MIC, AB06105, disrupted gene aroP, RPMI): < 0.05 µg/mL; MIC ([1]; read-out: Rifabutin MIC, AB06383, disrupted gene hisJ, MHII): 6.25 µg/mL (≈ 7.38 µM); MIC ([1]; read-out: Rifabutin MIC, AB06383, disrupted gene hisJ, RPMI): < 0.05 µg/mL; MIC ([1]; read-out: Rifabutin MIC, AB06386, disrupted gene hisP, MHII): 0.78 µg/mL (≈ 0.921 µM); MIC ([1]; read-out: Rifabutin MIC, AB06386, disrupted gene hisP, RPMI): < 0.05 µg/mL; MIC ([1]; read-out: Rifabutin MIC, AB06392, disrupted gene hisP, MHII): 0.78 µg/mL (≈ 0.921 µM); MIC ([1]; read-out: Rifabutin MIC, AB06392, disrupted gene hisP, RPMI): < 0.05 µg/mL; MIC ([1]; read-out: Rifabutin MIC, AB07354, disrupted gene aroP, MHII): 6.25 µg/mL (≈ 7.38 µM); MIC ([1]; read-out: Rifabutin MIC, AB07354, disrupted gene aroP, RPMI): < 0.05 µg/mL; MIC ([1]; read-out: Rifabutin MIC, AB07356, disrupted gene aroP, MHII): 1.56 µg/mL (≈ 1.84 µM); MIC ([1]; read-out: Rifabutin MIC, AB07356, disrupted gene aroP, RPMI): < 0.05 µg/mL; MIC ([1]; read-out: Rifabutin MIC, AB07813, disrupted gene mtr, MHII): 25 µg/mL (≈ 29.5 µM); MIC ([1]; read-out: Rifabutin MIC, AB07813, disrupted gene mtr, RPMI): < 0.05 µg/mL; MIC ([1]; read-out: Rifabutin MIC, AB09979, disrupted gene aroP, MHII): 0.78 µg/mL (≈ 0.921 µM); MIC ([1]; read-out: Rifabutin MIC, AB09979, disrupted gene aroP, RPMI): < 0.05 µg/mL; MIC ([1]; read-out: Rifabutin MIC, AB09980, disrupted gene tryP, MHII): 3.13 µg/mL (≈ 3.7 µM); MIC ([1]; read-out: Rifabutin MIC, AB09980, disrupted gene tryP, RPMI): < 0.05 µg/mL; MIC ([1]; read-out: Rifabutin MIC, AB09982, disrupted gene tryP, MHII): 6.25 µg/mL (≈ 7.38 µM); MIC ([1]; read-out: Rifabutin MIC, AB09982, disrupted gene tryP, RPMI): < 0.05 µg/mL; IC50 (A. baumannii ATCC 17978; ATCC17978, 24 h, ATCC 17978, RPMI + 50% Serum): < 0.847 nM; IC50 (A. baumannii ATCC 17978; ATCC17978, ATCC 17978, RPMI + 50% Serum): < 0.847 nM; IC50 (A. baumannii ATCC 17978; ATCC17978, ATCC 17978, RPMI): 24 nM
